{
  "source": "the OPERA property sets (Mansouri et al. 2018)",
  "data": [
    {"conditions": "not given", "units": {"solubility": "mM"}, "values": [
      {"smiles": "c1ccc2c3c(ccc2c1)-c1cccc2cccc-3c12", "solubility": "9.91e-06"},
      {"smiles": "O=C(O)c1ccc(Cl)cc1Cl", "solubility": 2.5},
      {"smiles": "CC1=C2[C@H]3OC(=O)[C@@H](C)[C@@H]3CC[C@@]2(C)C=CC1=O", "solubility": 0.812},
      {"smiles": "COc1cc(NS(=O)(=O)c2ccc(N)cc2)nc(OC)n1", "solubility": 1.11},
      {"smiles": "N[C@@H](C(=O)N[C@@H]1C(=O)N2C(C(=O)O)=C(Cl)CS[C@H]12)c1ccccc1", "solubility": 27.2},
      {"smiles": "NC(=O)c1cc(Cl)cc(Cl)c1N", "solubility": 8.29},
      {"smiles": "CCCCOc1ccc(C(=O)OCCN(CC)CC)cc1", "solubility": 0.13},
      {"smiles": "Cc1cccc(Cl)c1", "solubility": 0.3},
      {"smiles": "COc1cc(NS(=O)(=O)c2ccc(N)cc2)nc(C)n1", "solubility": 2.86},
      {"smiles": "c1ccc(N=NNc2ccccc2)cc1", "solubility": 2.54}
    ]},
    {"conditions": "20 °C", "units": {"solubility": "mM"}, "values": [
      {"smiles": "CCC(Cl)(Cl)[N+](=O)[O-]", "solubility": 31.7},
      {"smiles": "Cc1nnc(-c2ccccc2)c(=O)n1N", "solubility": 8.9},
      {"smiles": "O=C(O)Cn1c(=O)sc2cccc(Cl)c21", "solubility": 2.46},
      {"smiles": "c1ccc2c(c1)ccc1c2ccc2c3ccccc3ccc21", "solubility": "1.55e-05"},
      {"smiles": "C#CC(C)N(C)C(=O)Nc1ccc(Cl)cc1", "note": "(centres undefined)", "solubility": 0.127},
      {"smiles": "CC(C)(O)C(Cl)(Cl)Cl", "solubility": 45.1},
      {"smiles": "CCOP(=S)(OCC)Oc1ccc(S(C)=O)cc1", "note": "(centres undefined)", "solubility": 6.49},
      {"smiles": "Clc1ccccc1-c1cccc(Cl)c1Cl", "solubility": 0.00114},
      {"smiles": "O=C(Nc1ccccc1)c1ccccc1I", "solubility": 0.0619},
      {"smiles": "CC(C)CNC(=O)N1CCNC1=O", "solubility": 7.02},
      {"smiles": "CCC1CCCCC1", "solubility": 0.0561},
      {"smiles": "CC(Cl)C(C)Cl", "note": "(centres undefined)", "solubility": 4.42},
      {"smiles": "COP(=S)(OC)Oc1ccc([N+](=O)[O-])c(Cl)c1", "solubility": 0.134},
      {"smiles": "CC(=NO)C(C)=NO", "solubility": 5.17},
      {"smiles": "O=C1C[C@@H](c2ccc(O)c(O)c2)Oc2cc(O)cc(O)c21", "solubility": 0.243},
      {"smiles": "NC[C@H](O)c1ccccc1", "solubility": 334},
      {"smiles": "O=C(O)CCc1ccccc1", "solubility": 39.3},
      {"smiles": "CNC(=O)Nc1nc2ccccc2s1", "solubility": 0.0579},
      {"smiles": "Nc1ccc(S(=O)(=O)O)cc1", "solubility": 62.4},
      {"smiles": "Clc1ccc(-c2cc(Cl)c(Cl)c(Cl)c2Cl)cc1Cl", "solubility": "1.48e-05"},
      {"smiles": "CCCCC(C)(C)CCC", "solubility": 0.0155},
      {"smiles": "Oc1cccnc1", "solubility": 350},
      {"smiles": "COP(=S)(OC)SCc1nc(N)nc(N)n1", "solubility": 0.853},
      {"smiles": "OCCN(CCO)c1ccccc1", "solubility": 184},
      {"smiles": "CCCCNC(=O)n1c(NC(=O)OC)nc2ccccc21", "solubility": 0.0131},
      {"smiles": "FC(F)(F)c1cccc(C(c2ccccc2)(c2ccccc2)n2cncn2)c1", "solubility": "3.95e-06"},
      {"smiles": "Clc1cc2c(cc1Cl)Oc1c(Cl)c(Cl)c(Cl)c(Cl)c1O2", "solubility": "1.13e-08"},
      {"smiles": "CCCCOCCOC(C)=O", "solubility": 56.2},
      {"smiles": "CCOP(=S)(OCC)Oc1cc(C)nc(N(CC)CC)n1", "solubility": 0.0119},
      {"smiles": "Nc1ccccc1C(=O)O", "solubility": 25.5},
      {"smiles": "COC(=O)c1cc(Cl)cc(N)c1Cl", "solubility": 0.545},
      {"smiles": "Clc1ccc2c(c1)Oc1cc(Cl)c(Cl)c(Cl)c1O2", "solubility": "1.34e-06"},
      {"smiles": "N[C@@H](CSSC[C@H](N)C(=O)O)C(=O)O", "solubility": 0.791},
      {"smiles": "Oc1ccc2c(c1)CCCC2", "solubility": 10.1},
      {"smiles": "CC(Cl)[N+](=O)[O-]", "note": "(centres undefined)", "solubility": 36.5}
    ]},
    {"conditions": "21 °C", "units": {"solubility": "mM"}, "values": [
      {"smiles": "CC12CCC(CC1)C(C)(C)O2", "solubility": 17.2}
    ]},
    {"conditions": "22 °C", "units": {"solubility": "mM"}, "values": [
      {"smiles": "OC[C@@H](O)[C@@H](O)CO", "solubility": 4990},
      {"smiles": "O=[N+]([O-])c1ccc(Oc2ccc(Cl)cc2Cl)cc1", "solubility": 0.00352},
      {"smiles": "CCCC(C)C(=O)Nc1ccc(C)c(Cl)c1", "note": "(centres undefined)", "solubility": 0.0355},
      {"smiles": "COC(=O)NS(=O)(=O)c1ccc(N)cc1", "solubility": 21.7},
      {"smiles": "Cc1cc(=O)[nH]c(=O)[nH]1", "solubility": 55.5}
    ]},
    {"conditions": "23 °C", "units": {"solubility": "mM"}, "values": [
      {"smiles": "C[C@]12CC[C@@H](O)C[C@@H]1CC[C@@H]1[C@@H]2[C@H](O)C[C@]2(C)C(=O)CC[C@@H]12", "solubility": 0.255},
      {"smiles": "C[C@]12CC[C@@H](O)C[C@@H]1CC[C@@H]1[C@@H]2CC[C@]2(C)C(=O)CC[C@@H]12", "solubility": 0.0461}
    ]},
    {"conditions": "24 °C", "units": {"solubility": "mM"}, "values": [
      {"smiles": "CC=CCCCC", "solubility": 0.153},
      {"smiles": "O=C(O)c1ccc(O)c(C(=O)O)c1", "solubility": 1.65},
      {"smiles": "CC(C)COC(=O)c1ccccc1C(=O)OCC(C)C", "solubility": 0.0223},
      {"smiles": "CN(C)CCCN1c2ccccc2CCc2ccccc21", "solubility": 0.065}
    ]},
    {"conditions": "25 °C", "units": {"solubility": "mM"}, "values": [
      {"smiles": "COP(=S)(NC(C)C)Oc1ccc(Cl)cc1Cl", "note": "(centres undefined)", "solubility": 0.0159},
      {"smiles": "CCC1(CC)C(=O)NC(=O)N(C)C1=O", "solubility": 9.99},
      {"smiles": "O=C(O)c1cccnc1Nc1cccc(C(F)(F)F)c1", "solubility": 0.0673},
      {"smiles": "Cc1ccnc2c1ccc1c(C)ccnc12", "solubility": 0.107},
      {"smiles": "Cc1cc(-c2ccc(N)c(C)c2)ccc1N", "solubility": 6.12},
      {"smiles": "FC(F)(F)C(F)(F)F", "solubility": 0.0564},
      {"smiles": "c1ccsc1", "solubility": 35.8},
      {"smiles": "CCCCCCCBr", "solubility": 0.0371},
      {"smiles": "Clc1ccc(-c2cccc(Cl)c2)cc1", "solubility": 0.000398},
      {"smiles": "O=C(O)c1ccsc1", "solubility": 33.6},
      {"smiles": "C=CC#N", "solubility": 1400},
      {"smiles": "NCCCCCC(=O)O", "solubility": 3850},
      {"smiles": "Clc1ccc(-c2cc(Cl)ccc2Cl)cc1", "solubility": 0.000555},
      {"smiles": "C=C(C)CCC", "solubility": 0.927},
      {"smiles": "CCCC(=O)CCC", "solubility": 28},
      {"smiles": "Clc1cccc(-c2cccc(Cl)c2Cl)c1Cl", "solubility": "5.34e-05"},
      {"smiles": "C[C@@H](O)C(N)=O", "solubility": 8780},
      {"smiles": "O=C(O)COc1c(Cl)ccc(Cl)c1Cl", "solubility": 2.4},
      {"smiles": "Fc1cccc(CCl)c1", "solubility": 2.86},
      {"smiles": "CC(Oc1ccc(Cl)cc1)C(=O)O", "note": "(centres undefined)", "solubility": 7.33},
      {"smiles": "CCc1ccc2ccccc2c1", "solubility": 0.0513},
      {"smiles": "C#CCCCC#C", "solubility": 17.5},
      {"smiles": "Cc1ccc(-c2ccccc2)cc1", "solubility": 0.0241},
      {"smiles": "C=CCCCC=C", "solubility": 0.458},
      {"smiles": "CCC#CCC", "solubility": 6.8},
      {"smiles": "ClCC1CO1", "note": "(centres undefined)", "solubility": 712},
      {"smiles": "Oc1c(Cl)cc(Cl)c(Cl)c1Cc1c(O)c(Cl)cc(Cl)c1Cl", "solubility": 0.344},
      {"smiles": "COc1ccc(C=O)cc1", "solubility": 31.5},
      {"smiles": "Fc1cccc(Br)c1", "solubility": 2.16},
      {"smiles": "Cc1ccc(N=C=S)cc1", "solubility": 0.019},
      {"smiles": "CCCC(C)(C)C", "solubility": 0.0439},
      {"smiles": "Cc1cc(C)cc(O)c1", "solubility": 39.9},
      {"smiles": "Clc1cc(Cl)c(-c2c(Cl)cc(Cl)cc2Cl)c(Cl)c1", "solubility": "1.13e-06"},
      {"smiles": "CCc1cccc2ccccc12", "solubility": 0.0685},
      {"smiles": "CC(C)CCBr", "solubility": 1.3},
      {"smiles": "C=CCC1(C(C)CCC)C(=O)NC(=S)NC1=O", "note": "(centres undefined)", "solubility": 0.348},
      {"smiles": "CC(C)(C)CO", "solubility": 397},
      {"smiles": "CCC(C)(C)c1ccc(O)cc1", "solubility": 1.02},
      {"smiles": "CC1(C)[C@H](C(=O)O)CC[C@]1(C)C(=O)O", "solubility": 38},
      {"smiles": "C(=C\\c1ccccc1)/c1ccccc1", "solubility": 0.00161},
      {"smiles": "CC1CCC(C)(C)C1", "note": "(centres undefined)", "solubility": 0.0332},
      {"smiles": "CCCCCCCCCCCCCCCCCCCCCCCCCCCCCCCCCCCC", "solubility": "3.35e-06"},
      {"smiles": "CCOC(=O)CC#N", "solubility": 177},
      {"smiles": "c1cc2ccc3ccc4ccc5cccc6c(c1)c2c3c4c56", "solubility": "9.41e-07"},
      {"smiles": "Clc1ccc(-c2ccccc2)c(Cl)c1", "solubility": 0.00515},
      {"smiles": "Cc1cc(=O)[nH]o1", "solubility": 858},
      {"smiles": "CCCCCCCCCCCCCC(=O)O", "solubility": 0.00468},
      {"smiles": "Oc1ccc(-c2ccccc2)cc1", "solubility": 0.33},
      {"smiles": "O=C(O)c1cc(=O)c(O)c(C(=O)O)o1", "solubility": 42},
      {"smiles": "C1OCOCO1", "solubility": 1940},
      {"smiles": "O=C(O)CCI", "solubility": 372},
      {"smiles": "CC(C)C(=O)C(C)C", "solubility": 49.9},
      {"smiles": "NCCC(=O)O", "solubility": 6120},
      {"smiles": "ClCCCCl", "solubility": 24.3}
    ]},
    {"conditions": "28 °C", "units": {"solubility": "mM"}, "values": [
      {"smiles": "c1ccc2c(c1)CCCC2", "solubility": 0.354}
    ]},
    {"conditions": "30 °C", "units": {"solubility": "mM"}, "values": [
      {"smiles": "COc1c2occc2cc2ccc(=O)oc12", "solubility": 0.22},
      {"smiles": "CN=C(O)Oc1cccc(C)c1", "solubility": 15.7},
      {"smiles": "CCCCC(=O)CCCC", "solubility": 2.55},
      {"smiles": "C#CC=C", "solubility": 34.3},
      {"smiles": "CN(C)CCN(Cc1cccs1)c1ccccn1", "solubility": 2.3},
      {"smiles": "CCCCC1C(=O)N(c2ccccc2)N(c2ccc(O)cc2)C1=O", "note": "(centres undefined)", "solubility": 0.185},
      {"smiles": "NS(=O)(=O)c1cc2c(cc1Cl)N=CNS2(=O)=O", "solubility": 0.899}
    ]}
  ]
}
